{"source": "paper PMC5335257", "about": "“Promoting in vivo remyelination with small molecules: a neuroreparative pharmacological treatment for Multiple Sclerosis” (Scientific Reports, 2017)", "key": {"[1]": {"test_system": "cerebellar slices demyelinated with LPC", "test": "Ex vivo remyelination in cerebellar slice cultures demyelinated with LPC", "format": "cell-based, CD1 P7 mice", "conditions": "5 μM, 3 days post lesion (3DPL)", "protocol": "The protocol used was modified from previously described. CD1 P7 mice were decapitated, and their cerebella were dissected into ice-cold HBSS (Invitrogen). 300 μm sagittal slices of cerebellum were cut using a McIllwain tissue chopper, placed on Millicell-CM organotypic culture inserts (3 slices per insert; Millipore) in a medium containing HBSS:BME: horse serum (1:2:1, Invitrogen), 28 mM D (+) - glucose (Normapur), […] L-Glutamine (Invitrogen) and 100 U/mL penicillin, 0.1 mg/mL streptomycin and 0.25 μg/ml Amphotericin B antibiotic anti-mycotic solution (Sigma) and maintained at 5% CO2 and 37 °C. Medium was changed every two days, and after 7 days in culture, demyelination was induced by addition of 0.5 mg/ml LPC (Sigma) to the medium for 15 h. After that, slices were treated with fresh medium containing PDE7-GSK3 or GSK3 inhibitors (VP1.15, VP3.15 or TDZD8; 5 μM). Cultures were maintained for 1 or 3 days post lesion (DPL), and then fixed for 40 minutes and immunostained with anti-MBP antibodies (myelin basic protein –as a marker of myelin; 1:200; Serotec; Cat#MCA4095) and anti-neurofilament antibody (as a marker of axons; 1:200; Abcam; Cat#ab8135). Fluorescence images were taken on a confocal SP5 resonant scanner (Leica Microsystems) at 1μm intervals in white matter areas at x40 magnification. The photographs were merged and co-localisation of both markers was quantified with Image J software using the colocalization highlighter plugin. This measurement was related to the area occupied by axons (neurofilament staining) and normalized with control values showing the data as the mean normalized myelination index ± SEM. Quantification was made in at least three independent experiments."}, "[2]": {"test_system": "OPCs", "design": "method as in PMID 23661015", "conditions": "cited from earlier work"}, "[3]": {"test_system": "corpus callosum of LPC-injected mice", "test": "In vivo remyelination, LPC demyelination model", "design": "species or system C57/BL6 male mice", "conditions": "10 mg/kg i.p. from 9 dpi", "protocol": "Anaesthetized 8 week old C57/BL6 male mice were injected with 2 μl of 1% LPC through a hole drilled in the skull at stereotactic coordinates 1.2 mm posterior, 0.5 mm lateral, 1.4 mm deep to the bregma over 4 minutes using a 30-gauge needle attached to a Hamilton syringe, driven by a KD Scientific Nano pump, for 4 minutes to reduce backflow as previously described. At 9 days post injection (dpi), the first intraperitoneal dose of PDE7-GSK3 inhibitors (VP1.15 or VP3.15; 10 mg/kg of animal) was injected using the same solution detailed above for the cuprizone model. Each inhibitor was injected into a group of 10 mice and another group of 10 mice was injected with the vehicle. Two days after, a second dose was injected (11 dpi) and 5 mice of each group were perfused at 14 dpi with 4% PFA and 2% glutaraldehyde (GTA) in phosphate buffer. The remaining 5 animals of each group received a third injection of inhibitors (15 dpi) and were perfused at 21 dpi. A control group of 3 non-lesioned and non-treated mice was used as control. Fixed brains were post-fixed in 1% GTA for 7 days and then coronally cut into 1 mm slices. The slices containing the injected areas were selected and the area of interest was cut and processed for electron microscopy into a resin (Araldite/TAAB 812 Resin Kit, TAAB) following manufacturer instructions.\nIn order to detect the injured areas for investigation, sagittal semi-thin sections (1 μm) were cut using an ultramicrotome (Leica) and stained with toluidine blue. Ultra-thin sections (60 nm thick) were cut and stained in uranyl acetate and lead citrate and the ultrastructure was analysed taking images with a GatanOrius CCD camera coupled to a transmission electronic microscope (Philips CM120). The percentage of myelinated fibres and the thickness of myelin sheaths were examined. The mean percentage of myelinated fibres was measured from 10 fields per animal. Grids were overlaid onto the images and all axons intersecting with the grid lines were counted as myelinated or not[83][84]. The thickness of myelin around myelinated fibres was expressed as a g-ratio (axon perimeter divided by myelinated fibre perimeter) using ImageJ by tracing around a minimum of 100 individual fibres per mouse, using a pen and electronic pad (Bamboo pad, Wacom). To select the fibres randomly, a grid composed by 8 μm[2] squares was overlaid onto the images and fibres in alternate squares were measured. Data were expressed as the mean ± SEM."}, "[4]": {"test_system": "GSK-3", "design": "method as in PMID 24437940", "conditions": "read-out: GSK-3 inhibition IC50; cited from earlier work"}, "[5]": {"test_system": "spinal cord injury models", "design": "method as in PMID 21297958, PMID 23077723", "conditions": "spinal cord injury models (as well as EAE); cited from earlier work"}, "[6]": {"test_system": "PDE7", "design": "method as in PMID 24437940", "conditions": "read-out: PDE7 inhibition IC50; cited from earlier work"}, "[7]": {"design": "method as in PMID 23077723, PMID 25264825", "conditions": "cited from earlier work"}, "[8]": {"test_system": "corpus callosum of cuprizone-fed mice", "test": "In vivo remyelination, cuprizone demyelination model", "design": "species or system C57/BL6 male mice", "protocol": "The protocol used was modified from previously described. Demyelination was induced by feeding 8 weeks old male C57/BL6 mice ad libitum with 0.2% cuprizone (bis-cyclo-hexanone-oxaldihydrazone; Sigma) mixed with milled chow (Altromin) for 5 weeks. A control group was maintained in the same conditions but fed with the chow without cuprizone. After cuprizone withdrawal, mice were intraperitoneally injected on 3 alternate days with PDE7-GSK3 inhibitors (VP1.15 or VP3.15; 10 mg/kg of animal) using a solution of the compound (100 mg/mL in DMSO) diluted 1:50 in a solution of 5% Tocrisolve (Tocris, UK) in distilledwater[36] or with the vehicle. 1 week after the cuprizone withdrawal, mice were transcardially perfused with 4% PFA in phosphate buffer. Another group was maintained for 3 weeks after cuprizone withdrawal and injected with 3 doses per week on alternate days of the PDE7-GSK3 inhibitors (10 mg/kg of animal per dose see above) or the vehicle and then perfused. The corpus callosum of three animals per condition was studied. For histological examination, forebrain coronal sections (20 μm) were taken of the rostral part of the corpus callosum as previously described[80][81] and stained with eriochrome cyanine using a standard protocol in order to study the myelin. Briefly, cryosections on glass slides were immersed in acetone for 5 minutes, dried and submerged in eriochrome cyanine solution (Sigma) for 1 hour and then differentiated in 5% (w/v) iron alum for 5–10 minutes, followed by a second differentiation with borax-ferricyanide solution for 5 minutes. The stained area was measured with the Image J software and related to the total analyzed area. For the immunofluorescence analysis, tissue sections were stained with anti-MBP (1:200; Serotec; Cat#MCA4095) for myelin, anti-PDGFRα (1:200; Santa Cruz; Cat#sc338) for OPCs, anti-CC1 (1:100; Calbiochem, Cat#OP80) and anti-GFAP (Glial fibrillary acidic protein; 1:200; Dako; Cat#Z0334) for astrocytes, and tomato lectin (TL; 1:67; Sigma; Cat#L0651) for microglia. Optical images were acquired using an Olympus BX61 microscope and fluorescence images were taken using a DFC480 FX digital camera (Leica) coupled to a Leica DM5000 B microscope or a confocal SP5 resonant scanner (Leica). Myelin staining (with MBP and eriochrome cyanine) and CC1 staining were quantified by taking pictures of non-overlapping fields of coronal sections of the corpus callosum, between the lateral ventricles (2 fields per section, 5–6 sections of each mice; using a x20 objective) and by measuring the fluorescence intensity or blue staining using the Image J software. The number of OPCs per field was also counted in pictures of the midline of the corpus callosum using the x40 objective (4–6 sections per mice). Astrocytes and microglia were evaluated in pictures of the same area of the corpus callosum using the x40 objective and quantified by measuring the area occupied by GFAP or TL staining respectively using the Image J software (4–6 sections per mice). Data were expressed as the mean ± SEM."}}, "note": "pIC50: −log10 of the molar value. “Also recorded” adds a separate entry of the source.", "data": [{"smiles": "OCC/N=c1/nc(-c2ccccc2)n(-c2ccccc2)s1", "note": "[VP1.15]", "values": [{"measurement": "remyelination (normalized myelination index)", "setting": "[1]", "result": "increased"}, {"measurement": "OPC differentiation (and survival) in vitro", "setting": "[2]", "result": "enhance OPC differentiation and survival"}, {"measurement": "thickness of myelin sheaths (G-ratio) vs untreated demyelinated control", "setting": "[3]", "result": "increased the thickness"}, {"measurement": "percentage of myelinated callosal fibers vs vehicle", "setting": "[3]; analysed at 14 or 21 dpi", "result": "increase"}, {"measurement": "pIC50", "setting": "[4]", "result": 5.71}, {"measurement": "immunomodulatory effect", "setting": "[5]", "result": "immunomodulatory effect"}, {"measurement": "pIC50", "setting": "[6]", "result": 5.96}, {"measurement": "emetic side effects", "setting": "[7]", "result": "without emetic side effects"}, {"measurement": "myelin staining (eriochrome cyanine) in corpus callosum vs vehicle", "setting": "[8]; 10 mg/kg i.p. on 3 alternate days, 1 week after cuprizone withdrawal", "result": "significantly higher myelin staining; also recorded: almost complete remyelination"}, {"measurement": "myelin quantification by MBP immunodetection", "setting": "[8]; 10 mg/kg i.p., after cuprizone withdrawal", "result": "confirmed these results, with similar effects"}, {"measurement": "microglial activation (TL staining) vs vehicle", "setting": "[8]; 1 week after cuprizone withdrawal", "result": "Neither VP1.15 nor VP3.15 induced changes"}, {"measurement": "number of OPCs (PDGFRα+ cells) vs vehicle", "setting": "[8]; one week after cuprizone withdrawal", "result": "significantly lower number of OPCs"}]}]}
